Source: patent US20240269298A1, “PHOSPHONYL DERIVATIVE, AND COMPOSITION AND PHARMACEUTICAL APPLICATION THEREOF” (XIZANG HAISCO PHARMACEUTICAL CO., LTD., priority 2021, published 2024)
Read-outs that look alike come from different tables or passages of the source.

Experiments:
[1] = Pharmacokinetic test in mice; type: in vivo; conditions: male, ICR, mouse, po, administration i.g. (10 mg/kg), plasma
Procedure: Test objective: In this experiment, a single dose of test compounds was administered to ICR mice intravenously and intragastrically, the concentrations of the test compounds in plasma of mice were measured, and the pharmacokinetic characteristics and bioavailability of the test compounds in mice were evaluated.
Experimental animals: male ICR mice, 20-25 g, purchased from BEIJING HFK BIOSCIENCE CO., LTD. with the laboratory animal production license number of SCXK (JING) 2019-0008; or purchased from CHENGDU DDOSSY EXPERIMENTAL ANIMALS CO., LTD. (SCXK (CHUAN) 2020-030); or purchased from HUNAN SJA LABORATORY ANIMAL CO., LTD. (SCXK (XIANG) 2019-0004).
Experimental method: on the day of the experiment, ICR mice were randomly grouped according to their body weights. The mice were fasted with water available for 12 to 14 hours one day before the administration, and were fed 4 hours after the administration.
Sampling: before and after the administration, blood was taken from the orbits of the mice under isoflurane anesthesia, and placed in an EDTAK2 centrifuge tube. Centrifugation was carried out at 5000 rpm at 4° C. for 10 min, and the plasma was collected.
Time points for plasma collection in G1&G2 groups: 0, 5 min, 15 min, 30 min, 1h, 2h, 4h, 6h, 8h, and 24 h; • time points for plasma collection in G3 group: 0, 5 min, 15 min, 30 min, 1 h, 2 h, 4 h, 6h, 8h, and 24 h; • before analysis and detection, all samples were stored at −80° C. The samples were analyzed quantitatively by LC-MS/MS.

[2] = system: NCI-H1975 (EGFR-L858R-T790M) cells; experiment: Inhibitory activity on proliferation of NCI-H1975 (EGFR-L858R-T790M) cells (CTG, 72 h); type: cell-based; conditions: Homo sapiens
How it was run: (§1)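 IC50 values come from S-shaped dose-survival fits of CTG signal expressed as % of vehicle. Compound exposure lasted 72 h at 37 °C with 0.1% DMSO; seeding was 3000 A431 cells/well in DMEM+10% FBS and 1000 NCI-H1975 cells/well in RPMI1640+10% FBS.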

[3] = system: A431 (EGFR-WT) cells; experiment: Inhibitory activity on proliferation of A431 (EGFR-WT) cells (CTG, 72 h); type: cell-based; conditions: Homo sapiens, A-431
How it was run: as §1

[4] = read-out: IC50 (value in brackets)

| AUC(0-t) [1] [ng·h/mL] | IC50 ([2]; read-out: IC50 (class symbol)) [nM] | IC50 [2, 4] [nM] | IC50 [3] [nM] | Compound |
| --- | --- | --- | --- | --- |
| 6000 | < 100 | 51 |  | COc1cc(N2CCC3(CCN(CC4CCN(c5cc6c(cc5F)C(=O)N(C5CCC(=O)NC5=O)C6=O)CC4)CC3)CC2)c(-c2cnn(C)c2)cc1Nc1ncc(Br)c(Nc2ccc(-c3ccccc3)cc2P(C)(C)=O)n1 (stereo not drawn) [Compound 39, 5-(4-((9-(4-((5-bromo-4-((3-(dimethylphosphoryl)-[1,1′-biphenyl]-4-yl)amino)pyrimidin-2-yl)amino)-5-methoxy-2-(1-methyl-1H-pyrazol-4-yl)phenyl)-3,9-diazaspiro[5.5]undecan-3-yl)methyl)piperidin-1-yl)-2-(2,6-dioxopiperidin-3-yl)-6-fluoroisoindoline-1,3-dione] |
| 28600 | < 100 | 61 |  | COc1cc(N2CCC(N3CCN(CC4CCN(c5ccc(C(=O)NC6CCC(=O)NC6=O)nc5)CC4)CC3)CC2)c(-c2cnn(C)c2)cc1Nc1ncc(Br)c(Nc2ccc(-c3ccccc3)cc2P(C)(C)=O)n1 (stereo not drawn) [Compound 56, 5-(4-((4-(1-(4-((5-bromo-4-((3-(dimethylphosphoryl)-[1,1′-biphenyl]-4-yl)amino)pyrimidin-2-yl)amino)-5-methoxy-2-(1-methyl-1H-pyrazol-4-yl)phenyl)piperidin-4-yl)piperazin-1-yl)methyl)piperidin-1-yl)-N-(2,6-dioxopiperidin-3-yl)picolinamide] |
|  | < 100 | 95 | ≥ 10000 | COc1cc(N2CCC(C(=O)N3CCN(c4ccc5c(c4)C(=O)N(C4CCC(=O)NC4=O)C5=O)CC3)CC2)c(-c2cnn(C)c2)cc1Nc1ncc(Br)c(Nc2ccccc2P(C)(C)=O)n1 (stereo not drawn) [Compound 146, 5-(4-(1-(4-((5-bromo-4-((2-(dimethylphosphoryl)phenyl)amino)pyrimidin-2-yl)amino)-5-methoxy-2-(1-methyl-1H-pyrazol-4-yl)phenyl)piperidine-4-carbonyl)piperazin-1-yl)-2-(2,6-dioxopiperidin-3-yl)isoindoline-1,3-dione] |
|  | 100 to 500 | 103 | ≥ 10000 | COc1cc(N2CCC(F)(CN3CCN(c4ccc5c(c4)C(=O)N(C4CCC(=O)NC4=O)C5=O)CC3)CC2)c(-c2cnn(C)c2)cc1Nc1ncc(Br)c(Nc2ccc(C3CC3)cc2P(C)(C)=O)n1 (stereo not drawn) [Compound 147, 5-(4-((1-(4-((5-bromo-4-((4-cyclopropyl-2-(dimethylphosphoryl)phenyl)amino)pyrimidin-2-yl)amino)-5-methoxy-2-(1-methyl-1H-pyrazol-4-yl)phenyl)-4-fluoropiperidin-4-yl)methyl)piperazin-1-yl)-2-(2,6-dioxopiperidin-3-yl)isoindoline-1,3-dione] |
|  | < 100 | 79 | ≥ 10000 | COc1cc(N2CCN(C3CN(c4ccc5c(c4)C(=O)N(C4CCC(=O)NC4=O)C5=O)C3)CC2)c(-c2cnn(C)c2)cc1Nc1ncc(Cl)c(Nc2ccc(C3CC3)cc2P(C)(C)=O)n1 (stereo not drawn) [Compound 148, 5-(3-(4-(4-((5-chloro-4-((4-cyclopropyl-2-(dimethylphosphoryl)phenyl)amino)pyrimidin-2-yl)amino)-5-methoxy-2-(1-methyl-1H-pyrazol-4-yl)phenyl)piperazin-1-yl)azetidin-1-yl)-2-(2,6-dioxopiperidin-3-yl)isoindoline-1,3-dione] |
|  | < 100 | 40 | ≥ 10000 | COc1cc(N2CCN(C3CN(c4ccc5c(c4)C(=O)N(C4CCC(=O)NC4=O)C5=O)C3)CC2)c(-c2cnn(C)c2)cc1Nc1ncc(Br)c(Nc2ccc(C3CC3)cc2P(C)(C)=O)n1 (stereo not drawn) [Compound 150, 5-(3-(4-(4-((5-bromo-4-((4-cyclopropyl-2-(dimethylphosphoryl)phenyl)amino)pyrimidin-2-yl)amino)-5-methoxy-2-(1-methyl-1H-pyrazol-4-yl)phenyl)piperazin-1-yl)azetidin-1-yl)-2-(2,6-dioxopiperidin-3-yl)isoindoline-1,3-dione] |
|  | 100 to 500 | 152 | ≥ 10000 | COc1cc(N2CCC(CN3CCN(c4cc5c(cc4F)C(=O)N(C4CCC(=O)NC4=O)C5=O)CC3)CC2)c(-c2cnn(C)c2)cc1Nc1ncc(Cl)c(Nc2ccc(C3CC3)cc2P(C)(C)=O)n1 (stereo not drawn) [Compound 160, 5-(4-((1-(4-((5-chloro-4-((4-cyclopropyl-2-(dimethylphosphoryl)phenyl)amino)pyrimidin-2-yl)amino)-5-methoxy-2-(1-methyl-1H-pyrazol-4-yl)phenyl)piperidin-4-yl)methyl)piperazin-1-yl)-2-(2,6-dioxopiperidin-3-yl)-6-fluoroisoindoline-1,3-dione] |
|  | 100 to 500 | 134 | ≥ 10000 | COc1cc(N2CCC3(CCN(c4ccc5c(c4)C(=O)N(C4CCC(=O)NC4=O)C5=O)CC3)CC2)c(-c2cnn(C)c2)cc1Nc1ncc(Cl)c(Nc2ccc(F)cc2P(C)(C)=O)n1 (stereo not drawn) [Compound 162, 5-(9-(4-((5-chloro-4-((2-(dimethylphosphoryl)-4-fluorophenyl)amino)pyrimidin-2-yl)amino)-5-methoxy-2-(1-methyl-1H-pyrazol-4-yl)phenyl)-3,9-diazaspiro[5.5]undecan-3-yl)-2-(2,6-dioxopiperidin-3-yl)isoindoline-1,3-dione] |
|  | 100 to 500 | 109 | ≥ 10000 | COc1cc(N2CCC3(CCN(c4ccc5c(c4)C(=O)N(C4CCC(=O)NC4=O)C5=O)CC3)CC2)c(-c2cnn(C)c2)cc1Nc1ncc(Br)c(Nc2ccccc2P(C)(C)=O)n1 (stereo not drawn) [Compound 164, 5-(9-(4-((5-bromo-4-((2-(dimethylphosphoryl)phenyl)amino)pyrimidin-2-yl)amino)-5-methoxy-2-(1-methyl-1H-pyrazol-4-yl)phenyl)-3,9-diazaspiro[5.5]undecan-3-yl)-2-(2,6-dioxopiperidin-3-yl)isoindoline-1,3-dione] |
|  | 100 to 500 | 115 | ≥ 10000 | COc1cc(N2CCN(c3ccc4c(c3)C(=O)N(C3CCC(=O)NC3=O)C4=O)CC2)c(-c2cnn(C)c2)cc1Nc1ncc(Br)c(Nc2ccc(C3CC3)cc2P(C)(C)=O)n1 (stereo not drawn) [Compound 166, 5-(4-(4-((5-bromo-4-((4-cyclopropyl-2-(dimethylphosphoryl)phenyl)amino)pyrimidin-2-yl)amino)-5-methoxy-2-(1-methyl-1H-pyrazol-4-yl)phenyl)piperazin-1-yl)-2-(2,6-dioxopiperidin-3-yl)isoindoline-1,3-dione] |
|  | < 100 | 47 | ≥ 10000 | COc1cc(N2CCC(CN3CCN(c4ccc5c(c4)C(=O)N([C@H]4CCC(=O)NC4=O)C5=O)CC3)CC2)c(-c2cnn(C)c2)cc1Nc1ncc(Br)c(Nc2ccc(C3CC3)cc2P(C)(C)=O)n1 [Compound 170] |
|  | < 100 | 77 | ≥ 10000 | COc1cc(N2CCC(CN3CCN(c4ccc5c(c4)C(=O)N([C@@H]4CCC(=O)NC4=O)C5=O)CC3)CC2)c(-c2cnn(C)c2)cc1Nc1ncc(Br)c(Nc2ccc(C3CC3)cc2P(C)(C)=O)n1 [Compound 171] |
|  | < 100 | 49 | ≥ 10000 | COc1cc(N2CCC(CN3CCN(c4ccc5c(c4)C(=O)N([C@H]4CCC(=O)NC4=O)C5=O)CC3)CC2)c(-c2cnn(C)c2)cc1Nc1ncc(Cl)c(Nc2ccc(C3CC3)cc2P(C)(C)=O)n1 [Compound 172] |
|  | < 100 | 49 | ≥ 10000 | COc1cc(N2CCC(C3CCN(C4CC5(CCN(c6ccc7c(c6)C(=O)N(C6CCC(=O)NC6=O)C7=O)CC5)C4)CC3)CC2)c(-c2cnn(C)c2)cc1Nc1ncc(Cl)c(Nc2ccc3nccnc3c2P(C)(C)=O)n1 (stereo not drawn) [Trifluoroacetate of compound 14, 5-(2-(1′-(4-((5-chloro-4-((5-(dimethylphosphoryl)quinoxalin-6-yl)amino)pyrimidin-2-yl)amino)-5-methoxy-2-(1-methyl-1H-pyrazol-4-yl)phenyl)-[4,4′-bipiperidin]-1-yl)-7-azaspiro[3.5]nonan-7-yl)-2-(2,6-dioxopiperidin-3-yl)isoindoline-1,3-dione] |
|  | < 100 | 77 | ≥ 10000 | COc1cc(N2CCC(N3CCN(CC4(F)CCN(c5ccc6c(c5)C(=O)N(C5CCC(=O)NC5=O)C6=O)CC4)CC3)CC2)c(-c2cnn(C)c2)cc1Nc1ncc(Br)c(Nc2ccc(-c3ccccc3)cc2P(C)(C)=O)n1 (stereo not drawn) [Trifluoroacetate of compound 86, 5-(4-((4-(1-(4-((5-bromo-4-((3-(dimethylphosphoryl)-[1,1′-biphenyl]-4-yl)amino)pyrimidin-2-yl)amino)-5-methoxy-2-(1-methyl-1H-pyrazol-4-yl)phenyl)piperidin-4-yl)piperazin-1-yl)methyl)-4-fluoropiperidin-1-yl)-2-(2,6-dioxopiperidin-3-yl)isoindoline-1,3-dione] |
